Data: patent US20230218761A1, “METHOD FOR DECOMPOSING COMPOUND AND COMPOUND” (NATIONAL UNIVERSITY CORPORATION HOKKAIDO UNIVERSITY, priority 2020, published 2023)

Assays:
Assay type in all cases: physicochemical
[1] = Impact of pH on decomposition of the compound by X-ray irradiation (residual ratio by HPLC); settings: X-rays 6 MeV, 20 Gy absorbed, average of three
Method: In a phosphoric acid buffer solution having a pH of 6 or 7, 5 μM of the compound 2 was dissolved. While degassing was performed using Ar, the resulting mixture was irradiated with X-rays (6 MeV) using LINAC such that the amount of X-rays absorbed was 20 Gy. The sample irradiated with X-rays was analyzed using HPLC as in Example 5 to calculate the residual ratios of the compound 2 at the above pH values. The above calculation was conducted three times for each case, and the average was considered as the residual ratio (Post/Pre (%)) of the compound 2.
In Reference Example 2 where the compound 2 was dissolved in a phosphoric acid buffer solution having a pH of 7, the residual ratio (Post/Pre (%)) at which the compound 2 remained after the X-ray irradiation was 50.0%.
This confirms that, the lower the pH, the higher the likelihood of dissociation of the axial ligands.

[2] = Decomposition of compound by X-ray irradiation, residual ratio by HPLC (Examples 5 to 8); settings: 0.5 μM compound in 0.1-M phosphoric acid buffer pH 7.0, bubbled with Ar, X-rays 6 MeV, 20 Gy, 4.4 Gy/min
Method: HPLC System: HPLC system (produced by Shimadzu Corporation) equipped with a reverse-phase column Inertsil ODS-3 (10 mm×250 mm) (produced by GL Sciences).
Eluent A: 0.1-M triethylamine acetic acid buffer solution
This buffer solution was used as an X-ray irradiation solution for the compound.
The X-ray irradiation solution for the compound was bubbled with Ar and then irradiated with X-rays at 6 MeV (20 Gy, 4.4 Gy/min) using LINAC (linear accelerator).
The peak area ratio was calculated on the basis of the areas of absorption peaks of the compound and methylene blue. The ratio between the concentrations of methylene blue and the compound was determined using the calibration curve. The concentration of the compound was calculated using the known concentration of the methylene blue. Thus, the residual ratio (Post/Pre (%)) of the compound was determined.
Note that, the smaller the residual ratio (Post/Pre (%)), the higher the degree of progress of the decomposition (selectively decomposition of chemical bonds; dissociation of axial ligands) by X-rays.

[3] = Impact of radical species on decomposition of the compound by X-ray irradiation (residual ratio by HPLC); settings: 6 MeV
Method: Sodium formate was added to a 5-μM aqueous solution of the compound 2 as a radical scavenger. While degassing was performed using Ar, the resulting mixture was irradiated with X-rays (6 MeV) using LINAC such that the amount of X-rays absorbed was 2, 3, 4, or 5 Gy. Immediately after the irradiation, the degassing was stopped and the sample irradiated with X-rays was analyzed using HPLC as in Example 5 to calculate the residual ratios of the compound 2 under the above irradiation conditions. Note that, when the amount of X-rays emitted was 5 Gy, the amount of e^−aq (hydrated electrons) produced was 1.6 μM and the amount of CO2^−·(carbon dioxide anion radicals) produced was 1.6 μM. The irradiation and calculation of the residual ratio were conducted three times for each case, and the average was considered as the residual ratio (Post/Pre (%)) of the compound 2.
The residual ratio (Post/Pre (%)) of the compound 2 was calculated as in Reference Example 3, except that the degassing was stopped after the Ar degassing had been maintained 30 minutes subsequent to the X-ray irradiation.
The residual ratio (Post/Pre (%)) of the compound 2 was calculated as in Reference Example 3, except that, instead of sodium formate, sodium formate and nitrous oxide were used as a radical scavenger. Note that, when the amount of X-rays emitted was 5 Gy, the amount of e^−aq (hydrated electrons) produced was 0 μM and the amount of CO2^−·(carbon dioxide anion radicals) produced was 3.1 μM.
The residual ratio (Post/Pre (%)) of the compound 2 was calculated as in Reference Example 5, except that the degassing was stopped after the Ar degassing had been maintained 30 minutes subsequent to the X-ray irradiation.
The residual ratio (Post/Pre (%)) of the compound 2 was calculated as in Reference Example 3, except that the radical scavenger was not used.
The results obtained in Reference Example 3 to 6 confirm that, even in the case where the amount of X-ray (6 MeV) emitted is 10 Gy or less, that is, for example, 2 to 5 Gy, the selective decomposition of the chemical bonds of the compound 2 (dissociation of axial ligands) occurs due to the action of e^−aq (hydrated electrons) and/or CO2^−·(carbon dioxide anion radicals). It was also confirmed that continuing the Ar degassing subsequent to the irradiation enables the selective decomposition of the chemical bonds of the compound 2 to occur.
On the basis of the results obtained in Reference Examples 3 to 6, it is also considered that e^−aq (hydrated electrons) and/or CO2^−·(carbon dioxide anion radicals) contribute to the dissociation of the axial ligands of the compound 2. Since the residual ratio of the compound 2 decreased in the cases where the degassing was maintained, it is also considered that maintaining the degassing causes a radical chain reaction responsible for the dissociation of the axial ligands.

Substance: Bis{4-[Tris(3-Sulfopropyl)]Ammoniobutyloxide} Silicon Phthalocyanine [Compound 2]
- residual ratio (Post/Pre (%)) after X-ray irradiation ([1]; 5 μM in phosphoric acid buffer pH 6, Ar degassing): 18.6%
- residual ratio (Post/Pre (%)) after X-ray irradiation ([1]; 5 μM in phosphoric acid buffer pH 7, Ar degassing): 50.0%
- Post/pre (%) residual ratio of the compound after X-ray irradiation [2]: 46.8%
- residual ratio (Post/Pre (%)) ([3]; Reference example 3: 5 μM aqueous, sodium formate, Ar degassing stopped immediately after irradiation, 2 Gy absorbed): 98.4%
- residual ratio (Post/Pre (%)) ([3]; Reference example 3: 5 μM aqueous, sodium formate, Ar degassing stopped immediately after irradiation, 3 Gy absorbed): 93.3%
- residual ratio (Post/Pre (%)) ([3]; Reference example 3: 5 μM aqueous, sodium formate, Ar degassing stopped immediately after irradiation, 4 Gy absorbed): 89.5%
- residual ratio (Post/Pre (%)) ([3]; Reference example 3: 5 μM aqueous, sodium formate, Ar degassing stopped immediately after irradiation, 5 Gy absorbed): 8.8%
- residual ratio (Post/Pre (%)) ([3]; Reference example 4: sodium formate, Ar degassing maintained 30 minutes after irradiation, 2 Gy absorbed): 100%
- residual ratio (Post/Pre (%)) ([3]; Reference example 4: sodium formate, Ar degassing maintained 30 minutes after irradiation, 3 Gy absorbed): 49.9%
- residual ratio (Post/Pre (%)) ([3]; Reference example 4: sodium formate, Ar degassing maintained 30 minutes after irradiation, 4 Gy absorbed): 0.3%
- residual ratio (Post/Pre (%)) ([3]; Reference example 4: sodium formate, Ar degassing maintained 30 minutes after irradiation, 5 Gy absorbed): 0%
- residual ratio (Post/Pre (%)) ([3]; Reference example 5: sodium formate and nitrous oxide, degassing stopped immediately after irradiation, 2 Gy absorbed): 96.0%
- residual ratio (Post/Pre (%)) ([3]; Reference example 5: sodium formate and nitrous oxide, degassing stopped immediately after irradiation, 3 Gy absorbed): 90.4%
- residual ratio (Post/Pre (%)) ([3]; Reference example 5: sodium formate and nitrous oxide, degassing stopped immediately after irradiation, 4 Gy absorbed): 86.2%
- residual ratio (Post/Pre (%)) ([3]; Reference example 5: sodium formate and nitrous oxide, degassing stopped immediately after irradiation, 5 Gy absorbed): 8.3%
- residual ratio (Post/Pre (%)) ([3]; Reference example 6: sodium formate and nitrous oxide, Ar degassing maintained 30 minutes after irradiation, 2 Gy absorbed): 93.1%
- residual ratio (Post/Pre (%)) ([3]; Reference example 6: sodium formate and nitrous oxide, Ar degassing maintained 30 minutes after irradiation, 3 Gy absorbed): 85.4%
- residual ratio (Post/Pre (%)) ([3]; Reference example 6: sodium formate and nitrous oxide, Ar degassing maintained 30 minutes after irradiation, 4 Gy absorbed): 36.1%
- residual ratio (Post/Pre (%)) ([3]; Reference example 6: sodium formate and nitrous oxide, Ar degassing maintained 30 minutes after irradiation, 5 Gy absorbed): 4.8%
- residual ratio (Post/Pre (%)) ([3]; Reference example 7: no radical scavenger, Ar degassing, 2 Gy absorbed): 100%
- residual ratio (Post/Pre (%)) ([3]; Reference example 7: no radical scavenger, Ar degassing, 3 Gy absorbed): 99.4%
- residual ratio (Post/Pre (%)) ([3]; Reference example 7: no radical scavenger, Ar degassing, 4 Gy absorbed): 99.4%
- residual ratio (Post/Pre (%)) ([3]; Reference example 7: no radical scavenger, Ar degassing, 5 Gy absorbed): 100%

Substance: Bis{4-[Tris(3-Sulfopropyl)]Ammoniomethylphenoxide} Silicon Phthalocyanine [Compound 4]
- Post/pre (%) residual ratio of the compound after X-ray irradiation [2]: 74.8%

Substance: Bis{3-[Tris(3-Sulfopropyl)]Ammoniopropyldimethylsilyl Oxide} Silicon Phthalocyanine [Compound 1]
- Post/pre (%) residual ratio of the compound after X-ray irradiation [2]: 52.5%

Substance: Bis({6-[Tris(3-Sulfopropyl)]Ammoniohexanoyl} Oxide) Silicon Phthalocyanine [Compound 3]
- Post/pre (%) residual ratio of the compound after X-ray irradiation [2]: 62.1%
